Where two headings read alike, the source gives them in different places.
Key:
[1] = tested on: 60 tumor cell lines; assay: NCI60 full panel MG_MID; conditions: for GI50 / CC50: Homo sapiens; for CC50: read-out: 60 lines MG_MID, LC50; for 60 lines MG_MID, TGI: mean over all cell lines
Description: At the first stage of biological activity study, the antitumor activity screening of the selected compounds 2b, 2c, 2f, 2h, and 2j was performed according to the NCI DTP (USA) standard protocol at the concentrations ranging from 10^−4 to 10^−8 M toward 60 tumor cell lines. The percentage of growth was evaluated spectrophotometrically versus controls not treated with test agents after 48 h exposure and using SRB protein assay to estimate cell viability or growth. Dose–response parameters were calculated for each cell line: GI50—molar concentration of the compound that inhibits 50% net cell growth; TGI—molar concentration of the compound leading to the total inhibition; and LC50—molar concentration of the compound leading to 50% net cell death. Furthermore, mean graph midpoints (MG_MID) were calculated for each of the parameters, giving an average activity parameter over all cell lines for the tested compound. For the MG_MID calculation, insensitive cell lines were included with the highest concentration tested.
Primary anticancer assay was performed on a panel of approximately sixty human tumor cell lines derived from nine neoplastic diseases, in accordance with the protocol of the Drug Evaluation Branch, National Cancer Institute, Bethesda. Tested compounds were added to the culture at a single concentration (10^−5 M) and the cultures were incubated for 48 h. End point determinations were made with a protein binding dye, sulforhodamine B (SRB). […] The percentage growth was evaluated spectrophotometrically versus controls not treated with test agents.
Dose–response parameters (GI50, TGI, LC50) were calculated for each compound. […] The drug concentration resulting in total growth inhibition (TGI) was calculated from Ti = Tz. The LC50 (concentration of drug resulting in a 50% reduction in the measured protein at the end of the drug treatment as compared to that at the beginning) indicating a net loss of cells following treatment was calculated from [(Ti − Tz)/Tz] × 100 = −50 (2). Values were calculated for each of these parameters if the level of activity was reached; however, if the effect was not reached or was excessive, the value for that parameter was expressed as more or less than the maximum or minimum concentration tested.

[2] = tested on: K-562; conditions: for TGI: K-562 (Leukemia), 48 h, SRB; for TI (Therapeutic Index): GI50 (normal blood lymphocyte)/GI50 (K-562)
[3] = tested on: SR; conditions: for TGI: SR (Leukemia), 48 h, SRB
[4] = tested on: EKVX; conditions: EKVX (Non-Small Cell Lung Cancer), 48 h, SRB
[5] = tested on: SW-620; conditions: SW-620 (Colon Cancer), 48 h, SRB
[6] = tested on: PC-3; conditions: PC-3 (Prostate Cancer), 48 h, SRB
[7] = tested on: T-47D; conditions: T-47D (Breast Cancer), 48 h, SRB
[8] = tested on: RPMI-8226; assay: cells; conditions: Homo sapiens, RPMI-8226, 48 h; for CC50: read-out: LC50
[9] = tested on: SR; assay: cells; conditions: Homo sapiens, 48 h; for CC50: read-out: LC50
[10] = tested on: A549/ATCC; assay: cells; conditions: Homo sapiens, A549, 48 h; for CC50: read-out: LC50
[11] = tested on: KM12; assay: cells; conditions: Homo sapiens, KM12, 48 h; for CC50: read-out: LC50
[12] = tested on: SW-620; assay: cells; conditions: Homo sapiens, SW-620, 48 h; for CC50: read-out: LC50
[13] = tested on: 786-0; assay: cells; conditions: Homo sapiens, 786-0, 48 h; for CC50: read-out: LC50
[14] = tested on: PC-3; assay: cells; conditions: Homo sapiens, PC-3, 48 h; for CC50: read-out: LC50
[15] = tested on: NCI-H522; assay: NCI DTP 60 cell line screen, SRB
[16] = tested on: SF-268; assay: NCI DTP 60 cell line screen, SRB; conditions: for GI50 / CC50: Homo sapiens, SF-268, 48 h; for CC50: read-out: LC50; for TGI: SF-268 (CNS Cancer), 48 h, SRB
[17] = tested on: SF-295; assay: NCI DTP 60 cell line screen, SRB; conditions: for GI50 / CC50: Homo sapiens, SF-295, 48 h; for CC50: read-out: LC50; for TGI: SF-295 (CNS Cancer), 48 h, SRB
[18] = tested on: OVCAR-3; assay: NCI DTP 60 cell line screen, SRB; conditions: for GI50 / CC50: Homo sapiens, OVCAR-3, 48 h; for CC50: read-out: LC50; for TGI: OVCAR-3 (Ovarian Cancer), 48 h, SRB
[19] = tested on: ACHN; assay: NCI DTP 60 cell line screen, SRB; conditions: 48 h; for TGI: ACHN (Renal Cancer), SRB; for GI50 / CC50: Homo sapiens, ACHN; for CC50: read-out: LC50
[20] = tested on: CAKI-1; assay: NCI DTP 60 cell line screen, SRB; conditions: for TGI: CAKI-1 (Renal Cancer), 48 h, SRB; for GI50 / CC50: Homo sapiens, CAKI-1, 48 h; for CC50: read-out: LC50
[21] = tested on: TK-10; assay: NCI DTP 60 cell line screen, SRB; conditions: for GI50 / CC50: Homo sapiens, TK-10, 48 h; for CC50: read-out: LC50; for TGI: TK-10 (Renal Cancer), 48 h, SRB
[22] = tested on: NCI/ADR-Res; assay: NCI DTP 60 cell line screen, SRB; conditions: 48 h; for GI50 / CC50: Homo sapiens, NCI/ADR-RES; for CC50: read-out: LC50; for TGI: NCI/ADR-Res (Breast Cancer), SRB
[23] = tested on: SNB-75; conditions: SNB-75 (CNS Cancer), 48 h, SRB
[24] = tested on: SNB-75; assay: cells; conditions: Homo sapiens, SNB-75, 48 h; for CC50: read-out: LC50
[25] = read-out: 60 lines MG_MID, GI50

## O=C1/C(=C/C(Cl)=C/c2ccc([N+](=O)[O-])cc2)SC(=S)N1/N=C\C(Cl)=C\c1ccc([N+](=O)[O-])cc1 [Compound 2c, 5-[(Z,2Z)-2-Chloro-3-(4-nitrophenyl)-2-propenylidene]-3-[(Z,2Z)-2-chloro-3-(4-nitrophenyl)-2-propenylideneamino]-2-thioxo-4-thiazolidinone]
[1]; [25]
  GI50: 18 µM
[1]
  CC50: 81.7 µM
  60 lines MG_MID, TGI: 43.1 µM
[2]
  TGI: 25.5 µM
[3]
  TGI: 12.0 µM
[4]
  TGI: 47.7 µM
[5]
  TGI: > 100 µM
[6]
  TGI: 45.8 µM
[7]
  TGI: 65.3 µM
[8]
  GI50: 2.38 µM
  CC50: > 100 µM
[9]
  GI50: 3.67 µM
  CC50: > 100 µM
[10]
  GI50: 18.9 µM
  CC50: 96.1 µM
[11]
  GI50: 20.6 µM
  CC50: > 100 µM
[12]
  GI50: 7.24 µM
  CC50: > 100 µM
[13]
  GI50: 12.1 µM
  CC50: 77.8 µM
[14]
  GI50: 8.1 µM
  CC50: > 100 µM
[15]; Homo sapiens, NCI-H522, 48 h
  GI50: 16.3 µM
[15]; Homo sapiens, NCI-H522, 48 h, read-out: LC50
  CC50: 66.2 µM
[15]; NCI-H522 (Non-Small Cell Lung Cancer), 48 h, SRB
  TGI: 32.9 µM
[16]
  GI50: 17 µM
  CC50: > 100 µM
  TGI: 41.3 µM
[17]
  GI50: 18 µM
  CC50: 77.1 µM
  TGI: 37.3 µM
[18]
  GI50: 0.821 µM
  CC50: 41.1 µM
  TGI: 12.7 µM
[19]
  TGI: 29.7 µM
  GI50: 15.6 µM
  CC50: 56.4 µM
[20]
  TGI: 11.2 µM
  GI50: 3.11 µM
  CC50: > 100 µM
[21]
  GI50: 28 µM
  CC50: > 100 µM
  TGI: 69.6 µM
[22]
  GI50: 6.55 µM
  CC50: 61.7 µM
  TGI: 20.8 µM

## O=C1/C(=C/C(Cl)=C/c2ccc([N+](=O)[O-])cc2)SC(=S)N1c1ccc(O)cc1 [Compound 2f, 5-[(Z,2Z)-2-Chloro-3-(4-nitrophenyl)-2-propenylidene]-3-(4-hydroxyphenyl)-2-thioxo-4-thiazolidinone]
[1]; [25]
  GI50: 2.8 µM
[1]
  CC50: 80.8 µM
  60 lines MG_MID, TGI: 32.3 µM
[2]
  TI (Therapeutic Index): >191.94
  TGI: > 100 µM
[3]; GI50 (normal blood lymphocyte)/GI50 (SR)
  TI (Therapeutic Index): >10,000
[3]
  TGI: 0.138 µM
[4]
  TGI: 16.2 µM
[5]
  TGI: 1.52 µM
[23]
  TGI: > 100 µM
[6]
  TGI: 84.8 µM
[7]
  TGI: 7.71 µM
[8]
  GI50: < 0.01 µM
  CC50: > 100 µM
[9]
  GI50: 0.01 µM
  CC50: > 100 µM
[10]
  GI50: 2.25 µM
  CC50: > 100 µM
[11]
  GI50: 2.85 µM
  CC50: > 100 µM
[12]
  GI50: 0.037 µM
  CC50: > 100 µM
[24]
  GI50: 25.1 µM
  CC50: > 100 µM
[13]
  GI50: 2.04 µM
  CC50: 7.18 µM
[14]
  GI50: 2.29 µM
  CC50: > 100 µM
[16]
  GI50: 2.55 µM
  CC50: > 100 µM
  TGI: 34.5 µM
[17]
  GI50: 2.26 µM
  CC50: > 100 µM
  TGI: 13.8 µM
[18]
  GI50: 0.977 µM
  CC50: > 100 µM
  TGI: 41.8 µM
[19]
  TGI: 3.51 µM
  GI50: 1.7 µM
  CC50: 7.27 µM
[20]
  TGI: > 100 µM
  GI50: 4.44 µM
  CC50: > 100 µM
[21]
  GI50: 4.87 µM
  CC50: > 100 µM
  TGI: 29.0 µM
[22]
  GI50: 2.17 µM
  CC50: > 100 µM
  TGI: 6.13 µM

## O=C(O)CCN1C(=O)/C(=C/C(Cl)=C/c2ccc([N+](=O)[O-])cc2)SC1=S [Compound 2h, 3-{5-[(Z,2Z)-2-Chloro-3-(4-nitrophenyl)-2-propenylidene]-4-oxo-2-thioxothiazolidin-3-yl}propanoic acid]
[1]; [25]
  GI50: 1.57 µM
[1]
  CC50: 65 µM
  60 lines MG_MID, TGI: 13.3 µM
[1]; read-out: GI50 concentration range
  GI50: 0.01 to 0.02 µM
[2]
  TI (Therapeutic Index): 257.26
  TGI: 2.83 µM
[3]
  TGI: 1.41 µM
[4]
  TGI: 4.01 µM
[5]
  TGI: 3.25 µM
[23]
  TGI: 46.0 µM
[6]
  TGI: 13.7 µM
[7]
  TGI: > 100 µM
[8]
  GI50: 0.138 µM
  CC50: > 100 µM
[9]
  GI50: < 0.01 µM
  CC50: > 100 µM
[10]
  GI50: 1.76 µM
  CC50: > 100 µM
[11]
  GI50: 0.639 µM
  CC50: > 100 µM
[12]
  GI50: < 0.01 µM
  CC50: > 100 µM
[24]
  GI50: 12.5 µM
  CC50: > 100 µM
[13]
  GI50: 1.13 µM
  CC50: 5.42 µM
[14]
  GI50: 0.712 µM
  CC50: 41.9 µM
[16]
  GI50: 2.12 µM
  CC50: > 100 µM
  TGI: 9.74 µM
[17]
  GI50: 3.36 µM
  CC50: > 100 µM
  TGI: 21.6 µM
[18]
  GI50: 0.135 µM
  CC50: 66.6 µM
  TGI: 6.05 µM
[19]
  TGI: 2.42 µM
  GI50: 1.02 µM
  CC50: 5.76 µM
[20]
  TGI: 6.14 µM
  GI50: 0.485 µM
  CC50: 47.1 µM
[21]
  GI50: 2.33 µM
  CC50: 92 µM
  TGI: 16.9 µM
[22]
  GI50: 0.407 µM
  CC50: 6.43 µM
  TGI: 2.11 µM
